Read-outs that look alike come from different tables or passages of the source.
Columns and labels:
[1] = cited from earlier work
[2] = target: T1, RCC II (Rattus norvegicus, UniProt P21913+Q641Z9+Q6PCT8+Q920L2); assay: RCC II activity in submitochondrial particles; type: biochemical; parameters: key: activity relative to DMSO-treated controls (control set as 1 = 100%); details: relative to DMSO treated samples
T1 construct: Submitochondrial particles were prepared by subjecting the intact mitochondria to three successive freeze–thaw cycles; from tissue; host or cells: rat liver mitochondria, used as submitochondrial particles
T1 sequence (Q920L2 35-656): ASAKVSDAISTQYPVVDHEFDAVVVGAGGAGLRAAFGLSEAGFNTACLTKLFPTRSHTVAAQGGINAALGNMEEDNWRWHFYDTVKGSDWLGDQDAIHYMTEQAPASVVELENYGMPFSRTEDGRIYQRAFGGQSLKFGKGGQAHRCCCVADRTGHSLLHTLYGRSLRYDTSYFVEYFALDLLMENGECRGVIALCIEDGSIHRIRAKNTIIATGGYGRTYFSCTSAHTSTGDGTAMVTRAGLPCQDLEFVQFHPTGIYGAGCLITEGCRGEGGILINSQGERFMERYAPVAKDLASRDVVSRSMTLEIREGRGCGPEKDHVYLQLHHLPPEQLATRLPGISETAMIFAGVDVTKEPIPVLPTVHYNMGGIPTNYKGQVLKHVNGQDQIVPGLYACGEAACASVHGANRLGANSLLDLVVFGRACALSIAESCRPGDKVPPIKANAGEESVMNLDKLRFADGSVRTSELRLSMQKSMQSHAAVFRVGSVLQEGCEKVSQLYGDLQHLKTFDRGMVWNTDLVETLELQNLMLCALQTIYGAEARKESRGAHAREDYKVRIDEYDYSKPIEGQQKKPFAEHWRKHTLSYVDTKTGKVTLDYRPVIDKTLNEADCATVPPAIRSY
T1 sequence (P21913 31-282): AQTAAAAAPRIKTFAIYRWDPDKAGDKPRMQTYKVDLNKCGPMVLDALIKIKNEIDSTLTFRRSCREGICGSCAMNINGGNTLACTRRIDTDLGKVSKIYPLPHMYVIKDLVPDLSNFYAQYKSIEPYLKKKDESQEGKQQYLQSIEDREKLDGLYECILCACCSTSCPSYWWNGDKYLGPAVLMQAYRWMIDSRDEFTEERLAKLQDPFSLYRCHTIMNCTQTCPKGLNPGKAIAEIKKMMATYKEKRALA
T1 sequence (Q641Z9 1-169): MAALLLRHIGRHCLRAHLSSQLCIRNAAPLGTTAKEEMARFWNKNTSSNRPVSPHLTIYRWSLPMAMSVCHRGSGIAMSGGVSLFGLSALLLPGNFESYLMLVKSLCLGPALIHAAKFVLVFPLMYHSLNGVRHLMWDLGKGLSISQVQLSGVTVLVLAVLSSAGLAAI
T1 sequence (Q6PCT8 57-159): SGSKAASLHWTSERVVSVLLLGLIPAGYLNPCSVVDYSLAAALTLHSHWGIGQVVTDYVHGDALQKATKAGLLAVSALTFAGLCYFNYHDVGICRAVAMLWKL
Method in brief: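 Activity relative to DMSO (set as 1) after 15-min exposure of submitochondrial particles (1 mg/ml) to compound. RCC I is defined as rotenone-sensitive activity and RCC II is followed at 600 nm over 6 min.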

[3] = test system: RCC IV; assay: RCC IV activity in submitochondrial particles; type: biochemical, rat; parameters: key to RCC IV at 50XCmax / RCC IV at 100XCmax: activity relative to DMSO-treated controls (control set as 1 = 100%); details: for RCC activity IV: 15 min, DMSO-treated = 100
Method in brief: (§1)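 Rat submitochondrial particles (1 mg/ml) were treated with test compounds for 15 min. RCC IV, like RCC III, was monitored at 550 nm every 10 s for 2 min, and RCC I/V at 340 nm each minute for 6 min. DMSO samples defined unit activity.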

[4] = test system: isolated rat liver mitochondria; assay: Mitochondrial inner membrane potential (MMP), Rhodamine 123; type: biochemical; details: difference in signal between KI and DMSO treated samples at the end of experiments
Text: Fig. 3 KI effects on mitochondrial inner membrane potential (MMP). […] In a, c, data are means and standard derivations from three separate experiments. *p < 0.05 as compared to DMSO-treated samples at the end of experiments. In b, data are means of two independent experiments

[5] = test system: RCC V; assay: RCC V activity in submitochondrial particles; type: biochemical, rat; details: for RCC activity V: 15 min, DMSO-treated = 100; on RCC V at 5XCmax: key: 0 indicates that the drug had no effects (negative)
Method in brief: as §1

[6] = test system: RCC I; assay: RCC I activity in submitochondrial particles; type: biochemical, rat; parameters: key to RCC I at 10XCmax / RCC I at 100XCmax / RCC I at 50XCmax / RCC I at 30XCmax / RCC I at 20XCmax: activity relative to DMSO-treated controls (control set as 1 = 100%); details: for RCC activity I: 15 min, DMSO-treated = 100
Method in brief: as §1

[7] = test system: RCC III; assay: RCC III activity in submitochondrial particles; type: biochemical, rat; details: 15 min, DMSO-treated = 100
Method in brief: as §1

[8] = test system: isolated rat liver mitochondria; assay: Mitochondrial oxygen consumption (glutamate/malate or succinate driven, state 4 and state 3); type: biochemical; on State 3 respiration driven by succinate at 10XCmax: key: 0 indicates that the drug had no effects (negative); on State 3 respiration driven by succinate at 1XCmax: key: 0 indicates that the drug had no effects (negative)
Method in brief: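 Oxygen uptake on glutamate/malate or on succinate defined state 4; ADP added 3 min later gave state 3. Mitochondria isolated from rat liver by differential centrifugation, adjusted to 1 mg/ml and pretreated 5 min with inhibitor (0.1% DMSO final). Values relative to DMSO control, set to 1.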

[9] = test system: isolated rat liver mitochondria; assay: Mitochondrial ROS production (CM-H2DCFDA); details: DMSO treated samples set as 1
[10] = test system: isolated rat liver mitochondria; assay: Mitochondrial swelling (absorbance at 535 nm); type: biochemical; on Swelling 5XCmax: key: 0 indicates that the drug had no effects (negative)
[11] = 1XCmax, DMSO treated samples set as 1
[12] = 2.5XCmax, DMSO treated samples set as 1
[13] = 5XCmax, DMSO treated samples set as 1
[14] = 10XCmax, DMSO treated samples set as 1
[15] = 20XCmax, DMSO treated samples set as 1
[16] = 30XCmax, DMSO treated samples set as 1
[17] = 50XCmax, DMSO treated samples set as 1
[18] = 100XCmax, DMSO treated samples set as 1

## COc1cc2c(Nc3ccc(Br)cc3F)ncnc2cc1OCC1CCN(C)CC1 [Vandetanib]
[1]; 1 = DILI positive, 0 = negative, ref product labeling
  DILI potential (based on labeling): 0
[1]; ref FDA product labeling
  DILI potential (based on labeling): 0
[2]; 1.0XCmax
  RCC II at 1.0XCmax: 0
[2]; 2.5XCmax
  RCC II at 2.5XCmax: 0
[2]; 5XCmax
  RCC II at 5XCmax: 0
[2]; 10XCmax
  RCC II at 10XCmax: 0
[2]; 20XCmax
  RCC II at 20XCmax: 0
[2]; 30XCmax
  RCC II at 30XCmax: 0
[2]; 50XCmax
  RCC II at 50XCmax: 0
[2]; 100XCmax
  RCC II at 100XCmax: 0
[3]; 50-fold Cmax
  RCC activity IV: 100.56 ± 2.67 % of control
[3]; 50XCmax, relative to DMSO treated samples, in %
  RCC IV at 50XCmax: 0
[3]; 100-fold Cmax
  RCC activity IV: 103.06 ± 12.96 % of control
[4]; 1XCmax
  MMP measured by Rhodamine 123 at 1XCmax: 0
[4]; 2.5XCmax
  MMP measured by Rhodamine 123 at 2.5XCmax: 0
[4]; 5XCmax
  MMP measured by Rhodamine 123 at 5XCmax: 0
[4]; 10XCmax
  MMP measured by Rhodamine 123 at 10XCmax: 0
[4]; 20XCmax
  MMP measured by Rhodamine 123 at 20XCmax: 0
[4]; 30XCmax
  MMP measured by Rhodamine 123 at 30XCmax: 0
[4]; 50XCmax
  MMP measured by Rhodamine 123 at 50XCmax: 0
[4]; 100XCmax
  MMP measured by Rhodamine 123 at 100XCmax: 0
[5]; 5XCmax, relative to DMSO treated samples
  RCC V at 5XCmax: 0
[5]; 50-fold Cmax
  RCC activity V: 95.65 ± 4.66 % of control
[5]; 100-fold Cmax
  RCC activity V: 85.15 ± 8.36 % of control
[6]; 10XCmax, relative to DMSO treated samples
  RCC I at 10XCmax: 0
[6]; 50-fold Cmax
  RCC activity I: 87.71 ± 0.58 % of control
[6]; 50XCmax, relative to DMSO treated samples
  RCC I at 50XCmax: 87.71±0.58
[6]; 100-fold Cmax
  RCC activity I: 65.88 ± 7.15 % of control
[6]; 100XCmax, relative to DMSO treated samples
  RCC I at 100XCmax: 65.88±7.15
[6]; submitochondrial particles
  lowest concentration inhibiting RCC I: 50 fold Cmax
[7]; 50-fold Cmax
  RCC activity III: 99.20 ± 5.61 % of control
[7]; 100-fold Cmax
  RCC activity III: 91.23 ± 6.54 % of control
[8]; [11]
  State 3 respiration driven by glutamate/malate at 1XCmax: 0
  State 3 respiration driven by succinate at 1XCmax: 0
  State 4 respiration driven by glutamate/malate at 1XCmax: 0
  State 4 respiration driven by succinate at 1XCmax: 0
[8]; [12]
  State 3 respiration driven by glutamate/malate at 2.5XCmax: 0
  State 3 respiration driven by succinate at 2.5XCmax: 0
  State 4 respiration driven by glutamate/malate at 2.5XCmax: 0
  State 4 respiration driven by succinate at 2.5XCmax: 0
[8]; [13]
  State 3 respiration driven by glutamate/malate at 5XCmax: 0
  State 3 respiration driven by succinate at 5XCmax: 0
  State 4 respiration driven by glutamate/malate at 5XCmax: 0
  State 4 respiration driven by succinate at 5XCmax: 0
[8]; [14]
  State 3 respiration driven by glutamate/malate at 10XCmax: 0
  State 3 respiration driven by succinate at 10XCmax: 0
  State 4 respiration driven by glutamate/malate at 10XCmax: 0
  State 4 respiration driven by succinate at 10XCmax: 0
[8]; [15]
  State 3 respiration driven by glutamate/malate at 20XCmax: 0
  State 3 respiration driven by succinate at 20XCmax: 0
  State 4 respiration driven by glutamate/malate at 20XCmax: 0
  State 4 respiration driven by succinate at 20XCmax: 0
[8]; [16]
  State 3 respiration driven by glutamate/malate at 30XCmax: 0
  State 3 respiration driven by succinate at 30XCmax: 0
  State 4 respiration driven by glutamate/malate at 30XCmax: 0
  State 4 respiration driven by succinate at 30XCmax: 0
[8]; [17]
  State 3 respiration driven by glutamate/malate at 50XCmax: 0
  State 3 respiration driven by succinate at 50XCmax: 0
  State 4 respiration driven by glutamate/malate at 50XCmax: 0
  State 4 respiration driven by succinate at 50XCmax: 0
[8]; [18]
  State 3 respiration driven by glutamate/malate at 100XCmax: 0
  State 3 respiration driven by succinate at 100XCmax: 0
  State 4 respiration driven by glutamate/malate at 100XCmax: 0
  State 4 respiration driven by succinate at 100XCmax: 0
[8]; up to 100-fold Cmax or highest testable concentration
  effect on mitochondrial oxygen consumption: no effects
[9]; 1XCmax
  ROS measured by CM-H2DCFDA at 1XCmax: 0
[9]; 2.5XCmax
  ROS measured by CM-H2DCFDA at 2.5XCmax: 0
[9]; 5XCmax
  ROS measured by CM-H2DCFDA at 5XCmax: 0
[9]; 10XCmax
  ROS measured by CM-H2DCFDA at 10XCmax: 0
[9]; 20XCmax
  ROS measured by CM-H2DCFDA at 20XCmax: 0
[9]; 30XCmax
  ROS measured by CM-H2DCFDA at 30XCmax: 0
[9]; 50XCmax
  ROS measured by CM-H2DCFDA at 50XCmax: 0
[9]; 100XCmax
  ROS measured by CM-H2DCFDA at 100XCmax: 0
[10]
  lowest concentration causing mitochondrial swelling: 100 fold Cmax
[10]; 1XCmax, difference in signal between KI and DMSO treated samples at the end of experiments
  Swelling 1XCmax: 0
[10]; 2.5XCmax, difference in signal between KI and DMSO treated samples at the end of experiments
  Swelling 2.5XCmax: 0
[10]; 5XCmax, difference in signal between KI and DMSO treated samples at the end of experiments
  Swelling 5XCmax: 0
[10]; 10XCmax, difference in signal between KI and DMSO treated samples at the end of experiments
  Swelling 10XCmax: 0
[10]; 20XCmax, difference in signal between KI and DMSO treated samples at the end of experiments
  Swelling 20XCmax: 0
[10]; 30XCmax, difference in signal between KI and DMSO treated samples at the end of experiments
  Swelling 30XCmax: 0
[10]; 50XCmax, difference in signal between KI and DMSO treated samples at the end of experiments
  Swelling 50XCmax: 0
[10]; 100XCmax, difference in signal between KI and DMSO treated samples at the end of experiments
  Swelling 100XCmax: 0.22±0.06
[10]; up to 100-fold Cmax or highest testable concentration, 25 µM calcium chloride
  effect on mitochondrial swelling: significant mitochondrial swelling

— publication PMC5515969, “Effects of 31 FDA approved small-molecule kinase inhibitors on isolated rat liver mitochondria” (Archives of Toxicology, 2016)
